Where two headings read alike, the source gives them in different places.
Tests used:
[1] = target: human PARG (PARG-NanoLuc fusion in HEK293T cells) (Homo sapiens (Human), UniProt Q86W56); experiment: PARG NanoBRET-based cellular target engagement assay; type: cell-based; settings: HEK293T cells transfected with PARG-NanoLuc, NanoBRET probe 0.89 μM, 2 hours; read-out: PARG TE IC50
Summary of the method: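 HEK293T cells transiently expressing full-length human PARG with C-terminal NanoLuc, plated 24 h, then given compound (8-point series, 0.5% DMSO) for 15 min at room temperature. NanoBRET tracer added at 0.89 μM final, 2 h at 37° C.; BRET ratio (460/645 nm) fitted by 4-parameter logistic to give IC50.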

NCI-H1650 = experiment: Modified cell proliferation assay (CellTiter-Glo), NCI-H1650; type: cell-based; settings: modified protocol, 384-well, 300 cells per well, 120 h, highest concentration tested 30000 nM, read-out: NCI-H1650 GI50 (high PARG dependency)
Summary of the method: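 NCI-H1650 or RMUG-S cells seeded at 300 cells/well in RPMI1640 with 10% FCS, compounds added after 24 h, then 120 h at 37 °C/5% CO2. Viability read by CellTiter-Glo luminescence; IC50 from fitted dose-response inflection point. Z′≥0.5 required.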

[2] = target: Recombinant His-tagged human PARG protein (Homo sapiens (Human), UniProt Q86W56); experiment: PARG enzymatic assay (TFMU-ADPr fluorescence); type: biochemical; settings: 1 nM enzyme, 200 μM TFMU-ADPr, read after 30 minutes
Sequence of Recombinant His-tagged human PARG protein (Q86W56 whole entry): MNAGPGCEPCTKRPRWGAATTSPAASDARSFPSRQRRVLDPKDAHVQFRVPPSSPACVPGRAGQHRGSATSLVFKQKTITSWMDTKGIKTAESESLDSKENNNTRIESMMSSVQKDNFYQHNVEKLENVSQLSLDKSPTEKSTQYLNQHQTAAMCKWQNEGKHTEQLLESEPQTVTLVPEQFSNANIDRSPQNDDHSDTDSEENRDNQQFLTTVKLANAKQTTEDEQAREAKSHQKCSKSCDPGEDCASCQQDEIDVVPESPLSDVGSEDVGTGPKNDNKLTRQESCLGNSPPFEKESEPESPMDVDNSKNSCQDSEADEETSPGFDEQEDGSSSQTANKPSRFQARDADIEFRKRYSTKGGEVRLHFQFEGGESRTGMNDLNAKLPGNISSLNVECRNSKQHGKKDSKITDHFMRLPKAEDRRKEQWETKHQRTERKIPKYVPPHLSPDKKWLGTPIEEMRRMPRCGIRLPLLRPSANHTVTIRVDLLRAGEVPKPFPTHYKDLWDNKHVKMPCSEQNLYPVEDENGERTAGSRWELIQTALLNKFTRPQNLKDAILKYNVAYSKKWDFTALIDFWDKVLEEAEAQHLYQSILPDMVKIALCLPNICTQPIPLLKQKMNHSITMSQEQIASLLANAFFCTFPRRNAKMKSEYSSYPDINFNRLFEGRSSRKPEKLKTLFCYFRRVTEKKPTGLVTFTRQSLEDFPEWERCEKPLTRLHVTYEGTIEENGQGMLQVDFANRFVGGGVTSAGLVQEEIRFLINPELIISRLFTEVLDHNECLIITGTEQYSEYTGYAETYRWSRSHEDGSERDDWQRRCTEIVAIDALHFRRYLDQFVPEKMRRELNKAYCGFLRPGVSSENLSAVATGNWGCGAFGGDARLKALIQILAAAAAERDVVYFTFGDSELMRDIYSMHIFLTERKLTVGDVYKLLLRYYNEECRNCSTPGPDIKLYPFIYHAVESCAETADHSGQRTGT
Summary of the method: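 Sf21-expressed His-tagged human PARG (1 nM) preincubated 15 min with compound (8-point series, 0.5% DMSO) in pH 7.4 phosphate/KCl/β-mercaptoethanol buffer, then 200 μM TFMU-ADPr added. Fluorescence (ex 380/em 535 nm) read after 30 min; IC50 from 4-parameter logistic fit, no-enzyme control as bottom.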

RMUG-S = experiment: Modified cell proliferation assay (CellTiter-Glo), RMUG-S, Examples 12-44; type: cell-based; settings: Examples 12-44: modified protocol, 384-well, 300 cells per well, 120 h; highest concentration tested 9000 nM; read-out: RMUG-S GI50 (high PARG dependency)
Method: The cell proliferation assay protocol was modified and used for RMUG-S for Examples 12-44, and subsequently used to test Examples 1-44 in the NCI-H1650 cell line.
NCI-H1650 (ATCC, #CRL-5883) or RMUG-S were seeded on day 1 at 300 cells per well in a 384-well plate (Greiner, #781080) that assure assay linearity and optimal signal intensity in 25 μL of RPMI1640 media (Pan Biotech, #P04-22100) containing 10% FCS (Capricorn, #FBS-11A; Lot. CP22-5141) and 1% Glutamine (Pan Biotech, #P04-80100). After incubation for 24 h in humidified chambers at 37° C./5% CO2, compounds/DMSO were dispensed at different concentrations using an Echo 520 (Beckman Coulter). Cells were further incubated for 120 h at 37° C. and 5% CO2. Cells treated with the compound vehicle DMSO were used as negative controls and cells treated with 10 μM Staurosporine (LC Laboratories, #S-9300) served as positive controls.
At day 6 the CellTiter Glo Reagent was prepared according to the instructions of the kit (Promega Inc.): Reagent was mixed 1:1 with cell culture medium. Thereon, mixture and assay plates were equilibrated at room temperature for 20 min. Equal volumes of the reagent-medium-mixture were added to the volume of culture medium present in each well. The plates were mixed at […] for 2 minutes on an orbital shaker (Timix5, Edmund Buehler GmbH). The microplates were then incubated at room temperature for 10 minutes for stabilization of the luminescent signal. Following incubation, the luminescence was recorded on a Victor X5 microplate reader (Perkin Elmer) using a 200 ms integration time. The data was then analyzed with Excel using the XLFIT Plugin (dose response Fit 205) for determination of the concentration necessary for half-maximal inhibition (i.e. the inflection point of the fitted curve).
As quality control the Z′-factor was calculated from 16 positive and negative control values. Only assay results showing a Z′-factor≥0.5 were used for further analysis.

Sequence of human PARG (PARG-NanoLuc fusion in HEK293T cells) (Q86W56 whole entry, the tested form may be a part): as the sequence (Q86W56 whole entry) above

SMILES | IC50 [1] | GI50 (NCI-H1650; Homo sapiens, NCI-H1650) | IC50 [2] | GI50 (RMUG-S) | GI50 (NCI-H1650)
CO/N=c1\[nH]c2c(C3CCN(C)[C@H](C)C3)cc(S(=O)(=O)NC3(C)CC3)cc2c(=O)n1Cc1cnn(C)c1 (stereo partly drawn) [Example 25, (2E)-2-methoxyimino-N-(1-methylcyclopropyl)-3-[(1-methylpyrazol-4-yl)methyl]-4-oxo-8-[(2R)-1,2-dimethyl-4-piperidyl]-1H-quinazoline-6-sulfonamide] | 30 to 99 nM | 500 to 2000 nM | < 30 nM | 500 to 2000 nM | –
CO/N=c1\[nH]c2c(N3CCN(C)[C@H](C)C3)cc(S(=O)(=O)NC3(C)CC3)cc2c(=O)n1Cc1cnn(C)c1 [Example 21, (2E)-2-methoxyimino-N-(1-methylcyclopropyl)-3-[(1-methylpyrazol-4-yl)methyl]-4-oxo-8-[(3R)-3,4-dimethylpiperazin-1-yl]-1H-quinazoline-6-sulfonamide] | 30 to 99 nM | 500 to 2000 nM | < 30 nM | 500 to 2000 nM | –
CO/N=c1\[nH]c2c(C3=C[C@@H](C)N(C(C)=O)CC3)cc(S(=O)(=O)NC3(C)CC3)cc2c(=O)n1Cc1cnn(C)c1 [Example 29, (2E)-2-methoxyimino-N-(1-methylcyclopropyl)-3-[(1-methylpyrazol-4-yl)methyl]-4-oxo-8-[(2R)-1-acetyl-2-methyl-3,6-dihydro-2H-pyridin-4-yl]-1H-quinazoline-6-sulfonamide/(2E)-2-methoxyimino-N-(1-methylcyclopropyl)-3-[(1-methylpyrazol-4-yl)methyl]-4-oxo-8-[(6R)-1-acetyl-6-methyl-3,6-dihydro-2H-pyridin-4-yl]-1H-quinazoline-6-sulfonamide] | < 30 nM | – | < 30 nM | 500 to 2000 nM | 500 to 2000 nM
CO/N=c1\[nH]c2c(C3=C[C@@H](C)N(C)CC3)cc(S(=O)(=O)NC3(C)CC3)cc2c(=O)n1Cc1cnn(C)c1 [Example 28, (2E)-2-methoxyimino-N-(1-methylcyclopropyl)-3-[(1-methylpyrazol-4-yl)methyl]-4-oxo-8-[(2R)-1,2-dimethyl-3,6-dihydro-2H-pyridin-4-yl]-1H-quinazoline-6-sulfonamide/(2E)-2-methoxyimino-N-(1-methylcyclopropyl)-3-[(1-methylpyrazol-4-yl)methyl]-4-oxo-8-[(6R)-1,6-dimethyl-3,6-dihydro-2H-pyridin-4-yl]-1H-quinazoline-6-sulfonamide] | < 30 nM | – | < 30 nM | 500 to 2000 nM | < 500 nM
CO/N=c1\[nH]c2c(C3=C[C@@H](C)N(C(=O)C4(C)CC4)CC3)cc(S(=O)(=O)NC3(C)CC3)cc2c(=O)n1Cc1cnn(C)c1 [Example 30, (2E)-2-methoxyimino-N-(1-methylcyclopropyl)-3-[(1-methylpyrazol-4-yl)methyl]-4-oxo-8-[(2R)-2-methyl-1-(1-methylcyclopropanecarbonyl)-3,6-dihydro-2H-pyridin-4-yl]-1H-quinazoline-6-sulfonamide/(2E)-2-methoxyimino-N-(1-methylcyclopropyl)-3-[(1-methylpyrazol-4-yl)methyl]-4-oxo-8-[(6R)-6-methyl-1-(1-methylcyclopropanecarbonyl)-3,6-dihydro-2H-pyridin-4-yl]-1H-quinazoline-6-sulfonamide] | < 30 nM | – | < 30 nM | < 500 nM | < 500 nM
CO/N=c1\[nH]c2c(N3CCN(C(=O)N(C)C)[C@H](C)C3)cc(S(=O)(=O)NC3(C)CC3)cc2c(=O)n1Cc1cnn(C)c1 [Example 41, (R,E)-4-(2-(methoxyimino)-3-((1-methyl-1H-pyrazol-4-yl)methyl)-6-(N-(1-methylcyclopropyl)sulfamoyl)-4-oxo-1,2,3,4-tetrahydroquinazolin-8-yl)-N,N,2-trimethylpiperazine-1-carboxamide] | < 30 nM | < 500 nM | < 30 nM | – | –

Now from value to compound, other results behind:

IC50 [1] | GI50 (NCI-H1650; Homo sapiens, NCI-H1650) | IC50 [2] | SMILES | GI50 (RMUG-S) | GI50 (NCI-H1650)
100 to 1000 nM | > 2000 nM | < 30 nM | CO/N=c1\[nH]c2c(C3CCN[C@H](C)C3)cc(S(=O)(=O)NC3(C)CC3)cc2c(=O)n1Cc1cnn(C)c1 (stereo partly drawn) [Example 24, (2E)-2-methoxyimino-N-(1-methylcyclopropyl)-3-[(1-methylpyrazol-4-yl)methyl]-4-oxo-8-[(2R)-2-methyl-4-piperidyl]-1H-quinazoline-6-sulfonamide] | 2000 to 9000 nM | –
< 30 nM | < 500 nM | < 30 nM | CO/N=c1\[nH]c2c(C3CCN(C(=O)C4(C)CC4)[C@H](C)C3)cc(S(=O)(=O)NC3(C)CC3)cc2c(=O)n1Cc1cnn(C)c1 (stereo partly drawn) [Example 27, (2E)-2-methoxyimino-N-(1-methylcyclopropyl)-3-[(1-methylpyrazol-4-yl)methyl]-4-oxo-8-[(2R)-2-methyl-1-(1-methylcyclopropanecarbonyl)-4-piperidyl]-1H-quinazoline-6-sulfonamide] | < 500 nM | –
< 30 nM | 500 to 2000 nM | < 30 nM | CO/N=c1\[nH]c2c(C3CCN(C(C)=O)[C@H](C)C3)cc(S(=O)(=O)NC3(C)CC3)cc2c(=O)n1Cc1cnn(C)c1 (stereo partly drawn) [Example 26, (2E)-2-methoxyimino-N-(1-methylcyclopropyl)-3-[(1-methylpyrazol-4-yl)methyl]-4-oxo-8-[(2R)-1-acetyl-2-methyl-4-piperidyl]-1H-quinazoline-6-sulfonamide] | 2000 to 9000 nM | –
< 30 nM | 500 to 2000 nM | < 30 nM | CO/N=c1\[nH]c2c(-c3ccc(C(=O)N(C)C)nc3)cc(S(=O)(=O)NC3(C)CC3)cc2c(=O)n1Cc1cnn(C)c1 [Example 19, (E)-5-(2-(methoxyimino)-3-((1-methyl-1H-pyrazol-4-yl)methyl)-6-(N-(1-methylcyclopropyl)sulfamoyl)-4-oxo-1,2,3,4-tetrahydroquinazolin-8-yl)-N,N-dimethylpicolinamide] | – | –

From patent US20260042754A1, “Substituted Bicyclic Heteroaryl Sulfonamide Derivatives for the Treatment of Cancer” (NODUS ONCOLOGY LIMITED, priority 2022, published 2026)
